Data: patent publication US12287324B2, “Companion diagnostics for NSAIDS and donepezil for treating specific subpopulations of patients suffering from Alzheimer's disease” (University of North Texas Health Science Center at Fort …, priority 2018, dated 2025)
“Also recorded” adds a separate entry of the source.

System: Individuals with a diagnosis of probable AD
Test: ADCS anti-inflammatory clinical trial, 1-year exposure; MMSE and CDR-SB outcomes by treatment arm and proinflammatory endophenotype
Assay type: in vivo, human
Details: for participants with mild decline in MMSE (number) / participants with mild decline in MMSE (percent of arm): MMSE decline of 1-2 points over 12 mo; for participants who declined 3 or more points on MMSE (number) / participants who declined 3 or more points on MMSE (percent of arm): over 12-months (adverse responders); for participants with improvement in MMSE scores over 12-months (number) / participants with improvement in MMSE scores over 12-months (percent of arm): responders = improved MMSE >=1 point over 12 mo; for MMSE Change, mean (SD): change = screening − 12-month, positive = decline
Description: Data source. Banked plasma samples from the Alzheimer's Disease Cooperative Studies (ADCS) anti-inflammatory clinical trial were used. […] This was a multicenter, randomized, double-blind, placebo-controlled parallel group trial with 1-year exposure to study medications across forty ambulatory treatment centers affiliated with the ADCS. […] Inclusion criteria were as follows: age 50 or older, MMSE score of 13-26 and diagnosis of probable AD. Stable use of cholinesterase inhibitors was allowed.
Statistical Analyses. Biomarker data were transformed using the Box-Cox transformation per previously published protocols, relevant portions incorporated herein by reference. Support vector machine (SVM) analyses were utilized to build the proteomic profiles simultaneously classifying all outcome groups in R per the inventors previously published methods, relevant portions incorporated herein by reference. SVM analyses are capable of simultaneously taking into account large volume data to generate an overall profile (e.g., over and under-expression of select proteins) that most accurately classifies multiple outcomes rather than only binary outcomes. MMSE change scores were utilized as the outcome variables for the study (i.e. MMSE screening−MMSE 12-month follow-up=MMSE change). Participants were classified into four groups based on change in MMSE scores over 12-months: responders (improved MMSE scores of >=1 point over 12 mo), stable (no change in MMSE over 12 months), non-responders (MMSE decline of 1-2 points over 12 mo) or adverse responders (MMSE decline of 3 or more points over 12 mo). To build inflammatory profiles of treatment response, group status (i.e. treatment response) was utilized as the outcome variable in SVM models with pre-randomization inflammatory proteins as the predictor variable. In order to determine if the proinflammatory profile of treatment response was drug-specific, analyses were conducted utilizing the total sample as well as within specific study treatment arms.
Next, MMSE change scores were dichotomized into improvement versus stable or decline over the 12-mo period.

[1] = within treatment arm, no change in MMSE over 12 months
[2] = High proinflammatory endophenotype (n = 8)
[3] = Low proinflammatory endophenotype (n = 7)
[4] = Middle proinflammatory endophenotype (n = 36)

Compound: CS(=O)(=O)c1ccc(C2=C(c3ccccc3)C(=O)OC2)cc1 [Rofecoxib, rofecoxib]
- participants with mild decline in MMSE (number) (within treatment arm): 14
- participants with mild decline in MMSE (percent of arm) (within treatment arm): 25%
- participants who remained stable on MMSE (number) [1]: 8
- participants who remained stable on MMSE (percent of arm) [1]: 15%
- participants who declined 3 or more points on MMSE (number) (within treatment arm): 23
- participants who declined 3 or more points on MMSE (percent of arm) (within treatment arm): 42%
- participants with improvement in MMSE scores over 12-months (number) (within treatment arm): 9
- participants with improvement in MMSE scores over 12-months (percent of arm) (within treatment arm): 16%

Compound: COc1ccc2cc([C@H](C)C(=O)O)ccc2c1 [Naproxen, naproxen]
- CDR-SB 12 mo, mean (SD) [2]: 5.36 (3.0)
- CDR-SB Change, mean (SD) [2]: 0.7 (2.5)
- MMSE 12 mo, mean (SD) [2]: 21.2 (5.3)
- MMSE Change, mean (SD) (High proinflammatory endophenotype (n = 8), p = 0.02 vs placebo high group): −0.13 (3.1)
- CDR-SB 12 mo, mean (SD) [3]: 9.8 (4.1)
- CDR-SB Change, mean (SD) [3]: −2.5 (2.1)
- MMSE 12 mo, mean (SD) [3]: 16.1 (5.5)
- MMSE Change, mean (SD) [3]: 1.5 (3.1)
- CDR-SB 12 mo, mean (SD) [4]: 8.4 (4.1)
- CDR-SB Change, mean (SD) [4]: −2.6 (2.5)
- MMSE 12 mo, mean (SD) [4]: 16.5 (6.4)
- MMSE Change, mean (SD) [4]: 4.2 (4.6)
- decline / change in MMSE scores over a 12 mo period as compared to the placebo group (high end of the proinflammatory endophenotype (CRP>1015.52 & TNFα>0.64), F[1,6]=8.2, p=0.03): significantly reduced decline; also recorded: significantly better
- average score of dichotomized MMSE change (improvement versus stable or decline) (high proinflammatory endophenotype, 12-mo period, Placebo group 0.25): 0.63
- patients improved on MMSE (dichotomized) (high proinflammatory endophenotype, 12-mo period, Placebo group 25%): 63%
- improvement in MMSE scores over 12 months as compared to the Placebo group (high proinflammatory endophenotype, age, gender, education, APOE4 as covariates, F[1,6]=10.9, p=0.02): significant improvement
- cognitive course (MMSE) in the low end of the proinflammatory endophenotype (low end, CRP and TNFα cut-scores of the naproxen-specific algorithm): trend towards those in the low end to experience significant decline
- participants with mild decline in MMSE (number) (within treatment arm): 10
- participants with mild decline in MMSE (percent of arm) (within treatment arm): 20%
- participants who declined 3 or more points on MMSE (number) (within treatment arm): 26
- participants who declined 3 or more points on MMSE (percent of arm) (within treatment arm): 51%
- participants with improvement in MMSE scores over 12-months (number) (within treatment arm): 10
- participants with improvement in MMSE scores over 12-months (percent of arm) (within treatment arm): 20%
